Source: ChEMBL document CHEMBL1140389, “Synthesis and biological activity of macrocyclic inhibitors of hepatitis C virus (HCV) NS3 protease” (Bioorg Med Chem Lett, 2005)
Starred links: 1 amine or outer side, 2 acyl side, 3 side chain; linkers in the order of their positions; H or OH if unused. Positions of bridges follow the written chain, without caps; N, C: chain ends. Non-standard residues stand in square brackets, D forms with d. Residues, ends and D or L forms follow the SMILES beside them. *: point of attachment. Phe(3-(CH2)7CO) = O=C([C@H](Cc1cccc(CCCCCCCC(=O)[*:3])c1)N[*:1])[*:2]; X1 = CCCC(N[*:1])C(=O)C(=O)[*:2]; Chg = N[C@H](C(=O)O)C1CCCCC1; Phg = N[C@H](C(=O)O)c1ccccc1; OtBu = CC(C)(C)O*

Biological target: NS3 (Hepatitis C virus, UniProt A3EZJ3)
Sequence (A3EZJ3 whole entry): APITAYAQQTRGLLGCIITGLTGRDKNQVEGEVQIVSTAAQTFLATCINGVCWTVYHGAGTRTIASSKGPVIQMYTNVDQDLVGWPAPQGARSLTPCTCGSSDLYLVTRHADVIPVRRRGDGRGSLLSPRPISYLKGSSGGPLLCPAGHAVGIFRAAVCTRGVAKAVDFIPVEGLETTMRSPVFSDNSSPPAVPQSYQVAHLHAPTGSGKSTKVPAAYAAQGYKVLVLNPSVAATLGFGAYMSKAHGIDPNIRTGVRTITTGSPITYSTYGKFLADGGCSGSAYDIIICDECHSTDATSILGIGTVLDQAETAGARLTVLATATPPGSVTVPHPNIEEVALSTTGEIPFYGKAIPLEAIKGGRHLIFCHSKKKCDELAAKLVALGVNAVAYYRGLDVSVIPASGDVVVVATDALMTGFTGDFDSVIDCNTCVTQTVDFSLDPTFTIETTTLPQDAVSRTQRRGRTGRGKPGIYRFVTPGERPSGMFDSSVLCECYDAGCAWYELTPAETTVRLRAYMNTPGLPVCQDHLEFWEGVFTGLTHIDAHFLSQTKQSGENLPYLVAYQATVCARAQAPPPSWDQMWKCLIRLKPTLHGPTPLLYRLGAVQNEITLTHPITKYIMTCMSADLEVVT
Test: Inhibitory constant against NS3 serine protease of hepatitis c virus
Parameters: species or system Hepacivirus hominis

| Compound | Ki [nM] |
| --- | --- |
| CCCC(NC(=O)[C@@H]1Cc2cccc(c2)/C=C/CCCCCC(=O)N[C@@H](C2CCCCC2)C(=O)N1)C(=O)C(=O)NCC(=O)N[C@H](C(=O)N(C)C)c1ccccc1 (stereo not given in full) | 120 |
| CCCC(NC(=O)[C@@H]1Cc2cccc(c2)CCCCCCCC(=O)N[C@@H](C2CCCCC2)C(=O)N1)C(=O)C(=O)NCC(=O)N[C@H](C(=O)OC(C)(C)C)c1ccccc1 (stereo not given in full) ([Chg][Phe(3-(CH2)7CO)][X1]G[Phg]-OtBu; lactam N-2) | 2300 |
| CCCC(NC(=O)[C@@H]1Cc2cccc(c2)/C=C/CCCCCC(=O)N[C@@H](C2CCCCC2)C(=O)N1)C(=O)C(=O)NCC(=O)N[C@H](C(=O)OC(C)(C)C)c1ccccc1 (stereo not given in full) | 1200 |

These reach a lower Ki. Values come first.

| Ki [nM] | Compound |
| --- | --- |
| 110 | CCCC(NC(=O)[C@@H]1Cc2cccc(c2)CCCCCCCC(=O)N[C@@H](C2CCCCC2)C(=O)N1)C(=O)C(=O)NCC(=O)N[C@H](C(=O)N(C)C)c1ccccc1 (stereo not given in full) ([Chg][Phe(3-(CH2)7CO)][X1]G[Phg]-NMe2; lactam N-2) |
| 84 | CCCC(NC(=O)[C@@H]1Cc2cccc(c2)/C=C/CCCCCC(=O)N[C@@H](C2CCCCC2)C(=O)N1)C(=O)C(=O)NCC(=O)N[C@H](C(=O)O)c1ccccc1 (stereo not given in full) |
